Test results from PMC10056986 (Pharmaceuticals, 2023).
Several values for one entry are separate records, joined by “and”; a condition that tells them apart may be missing. Identical values can stand only once. Like-named read-outs stand apart in the source and are kept apart here.

Experiments:
KDR = KDR (Homo sapiens, UniProt P35968); assay: biochemical
GSK3 beta = GSK3 beta (Homo sapiens, UniProt P49841); assay: biochemical
A/PR/8/34 (H1N1) [1] = test system: A/PR/8/34 (H1N1); parameters: species or system BALB/c mice; conditions: mouse, in vivo
CAMK2 alpha = CAMK2 alpha (Homo sapiens, UniProt Q9UQM7); assay: biochemical
FGFR1 = FGFR1 (Homo sapiens, UniProt P11362); assay: biochemical
M1 = M1 (Homo sapiens, UniProt P11229); assay: cell-based
[2] = test system: influenza A virus WSN/33 (H1N1); parameters: species or system BALB/c mice; conditions: mouse, in vivo
Beta2 = Beta2 (Homo sapiens, UniProt P07550); assay: cell-based
Sequence of Beta2 (P07550 whole entry): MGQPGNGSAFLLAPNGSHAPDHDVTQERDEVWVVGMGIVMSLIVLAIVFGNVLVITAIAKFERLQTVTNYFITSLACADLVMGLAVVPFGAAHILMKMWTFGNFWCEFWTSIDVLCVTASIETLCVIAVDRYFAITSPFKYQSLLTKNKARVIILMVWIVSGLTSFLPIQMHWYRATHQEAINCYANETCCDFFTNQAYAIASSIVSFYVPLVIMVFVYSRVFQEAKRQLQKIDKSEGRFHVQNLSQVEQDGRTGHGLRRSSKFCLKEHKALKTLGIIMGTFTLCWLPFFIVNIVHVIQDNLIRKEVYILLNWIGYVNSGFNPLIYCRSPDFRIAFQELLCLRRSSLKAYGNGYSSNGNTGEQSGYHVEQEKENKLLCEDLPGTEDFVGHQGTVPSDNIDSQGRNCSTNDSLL

[3] = biological target: influenza virus polymerase (PB1, PB2, NP, PA from A/California/04/2009 (H1N1) pdm09) (Influenza A virus, UniProt C3W5R8+C3W5R9); format: cell-based
A/PR/8/34 (H1N1) [4] = test system: A/PR/8/34 (H1N1); parameters: species or system BALB/c mice; conditions: mouse, in vivo; remark: listed apart in the source
EV71 Shenzhen/120F1/09 = assay: microbe, parasite or virus in culture; format: cell-based, human enterovirus 71; conditions: Enterovirus A, EV71, RD, read-out: EC50 for Virus
5HT2A [5] = biological target: T1, 5HT2A (Homo sapiens, UniProt P28223); assay: cell-based
T1 sequence (P28223 whole entry): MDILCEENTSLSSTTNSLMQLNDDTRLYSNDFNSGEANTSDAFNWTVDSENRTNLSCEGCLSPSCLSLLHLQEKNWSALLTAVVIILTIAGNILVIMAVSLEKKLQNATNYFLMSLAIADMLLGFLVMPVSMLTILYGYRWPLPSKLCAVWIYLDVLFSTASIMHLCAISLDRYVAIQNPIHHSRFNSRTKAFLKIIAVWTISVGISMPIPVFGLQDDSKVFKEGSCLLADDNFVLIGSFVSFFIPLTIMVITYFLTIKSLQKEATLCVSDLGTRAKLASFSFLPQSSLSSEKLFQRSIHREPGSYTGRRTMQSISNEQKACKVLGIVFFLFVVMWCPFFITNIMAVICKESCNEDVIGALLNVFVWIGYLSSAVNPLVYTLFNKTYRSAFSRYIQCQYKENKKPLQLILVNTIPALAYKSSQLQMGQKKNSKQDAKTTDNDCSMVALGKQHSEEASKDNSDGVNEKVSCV

[6] = test system: Influenza virus A/California/2/2014 (H3N2); assay: microbe, parasite or virus in culture; format: cell-based; conditions: H3N2, MDCK, read-out: EC50 (mean ± SD)
HBV = assay: microbe, parasite or virus in culture; format: cell-based; conditions: Hepatitis B virus, HepG2.2.15, read-out: EC50 for Virus
CB1 = CB1 (Homo sapiens, UniProt P21554); assay: cell-based
Sequence of CB1 (P21554 whole entry): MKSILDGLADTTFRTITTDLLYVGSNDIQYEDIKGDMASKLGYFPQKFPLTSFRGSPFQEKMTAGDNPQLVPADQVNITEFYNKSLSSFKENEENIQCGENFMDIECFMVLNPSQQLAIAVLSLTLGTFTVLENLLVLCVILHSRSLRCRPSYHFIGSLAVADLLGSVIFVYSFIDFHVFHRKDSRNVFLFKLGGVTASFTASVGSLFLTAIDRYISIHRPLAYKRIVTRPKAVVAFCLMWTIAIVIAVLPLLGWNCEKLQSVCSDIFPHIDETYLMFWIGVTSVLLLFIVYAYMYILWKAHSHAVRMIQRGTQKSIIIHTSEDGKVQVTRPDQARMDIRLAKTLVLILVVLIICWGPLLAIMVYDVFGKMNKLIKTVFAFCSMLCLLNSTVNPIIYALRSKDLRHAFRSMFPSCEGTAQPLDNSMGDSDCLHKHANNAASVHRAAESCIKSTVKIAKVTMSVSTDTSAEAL

[7] = test system: influenza A virus/California/07/2009 (H1N1); parameters: species or system ferrets; conditions: in vivo, po, 25 mg/kg/day
22 GPCR targets = format: cell-based, human; conditions: read-out: IC50 (antagonist screening)
[8] = test system: influenza A virus WSN/33 (H1N1); parameters: species or system BALB/c mice; conditions: mouse, in vivo; remark: listed apart in the source
Alpha2a = Alpha2a (Homo sapiens, UniProt P08913); assay: cell-based
[9] = test system: Influenza virus A/WS/33 (H1N1); assay: microbe, parasite or virus in culture; format: cell-based; conditions: H1N1, MDCK, read-out: EC50 (mean ± SD)
D1 = D1 (Homo sapiens, UniProt P21728); assay: cell-based
Sequence of D1 (P21728 whole entry): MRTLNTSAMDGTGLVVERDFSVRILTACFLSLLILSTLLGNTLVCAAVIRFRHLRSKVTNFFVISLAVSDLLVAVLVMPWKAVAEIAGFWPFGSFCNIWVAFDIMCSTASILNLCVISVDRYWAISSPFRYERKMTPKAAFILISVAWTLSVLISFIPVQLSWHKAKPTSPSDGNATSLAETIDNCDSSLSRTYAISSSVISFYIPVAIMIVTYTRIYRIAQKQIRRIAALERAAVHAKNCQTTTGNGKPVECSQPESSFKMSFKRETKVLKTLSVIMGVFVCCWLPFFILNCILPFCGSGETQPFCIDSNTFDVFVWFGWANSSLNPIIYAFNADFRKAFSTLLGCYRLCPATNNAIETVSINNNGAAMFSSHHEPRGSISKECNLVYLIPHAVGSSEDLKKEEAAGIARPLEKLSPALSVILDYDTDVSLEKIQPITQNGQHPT

in vitro = conditions: dog, CC50 (mean ± SD)
5HT2A [10] = biological target: T1, 5HT2A; assay: cell-based; remark: listed apart in the source
Aurora A = Aurora A (Homo sapiens, UniProt O14965); assay: biochemical
Alpha1a = Alpha1a (Homo sapiens, UniProt P35348); assay: cell-based
Sequence of Alpha1a (P35348 whole entry): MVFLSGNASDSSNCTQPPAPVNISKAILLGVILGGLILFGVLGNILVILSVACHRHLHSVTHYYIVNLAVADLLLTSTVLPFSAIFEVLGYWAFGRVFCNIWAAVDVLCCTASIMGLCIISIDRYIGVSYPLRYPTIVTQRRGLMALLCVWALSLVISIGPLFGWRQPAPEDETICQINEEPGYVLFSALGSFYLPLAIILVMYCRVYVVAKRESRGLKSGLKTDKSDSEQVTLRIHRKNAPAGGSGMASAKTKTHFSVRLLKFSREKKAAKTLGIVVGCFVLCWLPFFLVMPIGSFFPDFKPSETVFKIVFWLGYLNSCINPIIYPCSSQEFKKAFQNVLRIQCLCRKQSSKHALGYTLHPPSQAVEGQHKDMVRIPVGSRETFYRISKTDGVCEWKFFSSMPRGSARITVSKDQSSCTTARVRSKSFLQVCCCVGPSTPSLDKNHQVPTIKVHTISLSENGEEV

op-delta = op-delta (Homo sapiens, UniProt P41143); assay: cell-based
Sequence of op-delta (P41143 whole entry): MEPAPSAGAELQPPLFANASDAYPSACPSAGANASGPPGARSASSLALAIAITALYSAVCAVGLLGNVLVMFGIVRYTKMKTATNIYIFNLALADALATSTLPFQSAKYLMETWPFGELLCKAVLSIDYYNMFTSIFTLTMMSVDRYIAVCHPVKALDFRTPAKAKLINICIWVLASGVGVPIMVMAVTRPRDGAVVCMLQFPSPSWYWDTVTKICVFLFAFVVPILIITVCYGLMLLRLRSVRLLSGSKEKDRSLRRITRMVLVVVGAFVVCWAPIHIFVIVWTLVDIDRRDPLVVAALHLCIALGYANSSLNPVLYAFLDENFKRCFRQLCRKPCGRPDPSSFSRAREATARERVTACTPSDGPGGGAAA

[11] = test system: A/Qingyuan/GIRD01/2017 (H7N9); assay: microbe, parasite or virus in culture; format: cell-based, avian influenza virus; conditions: Influenza A virus, H7N9, MDCK, read-out: IC50 (mean ± SD)
RSV long = assay: microbe, parasite or virus in culture; format: cell-based, respiratory syncytial virus; conditions: human respiratory syncytial virus, HEp-2, read-out: EC50 for Virus
MST4 = MST4 (Homo sapiens, UniProt Q9P289); assay: biochemical
M2 = M2 (Homo sapiens, UniProt P08172); assay: cell-based
Sequence of M2 (P08172 whole entry): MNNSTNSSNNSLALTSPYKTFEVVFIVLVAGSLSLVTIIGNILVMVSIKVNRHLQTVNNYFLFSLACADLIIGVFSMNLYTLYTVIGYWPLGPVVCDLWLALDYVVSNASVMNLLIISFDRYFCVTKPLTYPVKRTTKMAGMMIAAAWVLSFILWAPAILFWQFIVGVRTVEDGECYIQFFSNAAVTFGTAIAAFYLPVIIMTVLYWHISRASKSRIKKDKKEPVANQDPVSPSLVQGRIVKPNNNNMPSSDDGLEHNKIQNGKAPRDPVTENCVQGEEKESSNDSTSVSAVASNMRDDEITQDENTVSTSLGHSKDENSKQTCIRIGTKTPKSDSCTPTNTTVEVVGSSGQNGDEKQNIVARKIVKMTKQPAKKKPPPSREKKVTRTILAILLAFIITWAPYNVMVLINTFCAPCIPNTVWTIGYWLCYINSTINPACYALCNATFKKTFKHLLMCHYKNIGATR

JNK1 = JNK1 (Homo sapiens, UniProt P45983); assay: biochemical
V1a = V1a (Homo sapiens, UniProt P37288); assay: cell-based
Sequence of V1a (P37288 whole entry): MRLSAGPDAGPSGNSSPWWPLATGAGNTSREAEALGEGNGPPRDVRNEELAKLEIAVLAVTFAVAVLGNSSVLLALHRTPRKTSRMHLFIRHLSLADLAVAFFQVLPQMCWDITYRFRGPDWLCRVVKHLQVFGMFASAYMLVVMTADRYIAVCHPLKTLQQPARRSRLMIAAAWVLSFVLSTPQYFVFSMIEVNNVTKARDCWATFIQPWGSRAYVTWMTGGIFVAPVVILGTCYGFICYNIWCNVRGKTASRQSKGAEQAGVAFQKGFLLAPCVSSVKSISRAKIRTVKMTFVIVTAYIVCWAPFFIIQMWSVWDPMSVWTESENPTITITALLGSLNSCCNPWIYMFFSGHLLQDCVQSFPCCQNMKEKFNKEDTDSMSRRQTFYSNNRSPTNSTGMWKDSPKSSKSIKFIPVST

M3 = M3 (Homo sapiens, UniProt P20309); assay: cell-based
Sequence of M3 (P20309 whole entry): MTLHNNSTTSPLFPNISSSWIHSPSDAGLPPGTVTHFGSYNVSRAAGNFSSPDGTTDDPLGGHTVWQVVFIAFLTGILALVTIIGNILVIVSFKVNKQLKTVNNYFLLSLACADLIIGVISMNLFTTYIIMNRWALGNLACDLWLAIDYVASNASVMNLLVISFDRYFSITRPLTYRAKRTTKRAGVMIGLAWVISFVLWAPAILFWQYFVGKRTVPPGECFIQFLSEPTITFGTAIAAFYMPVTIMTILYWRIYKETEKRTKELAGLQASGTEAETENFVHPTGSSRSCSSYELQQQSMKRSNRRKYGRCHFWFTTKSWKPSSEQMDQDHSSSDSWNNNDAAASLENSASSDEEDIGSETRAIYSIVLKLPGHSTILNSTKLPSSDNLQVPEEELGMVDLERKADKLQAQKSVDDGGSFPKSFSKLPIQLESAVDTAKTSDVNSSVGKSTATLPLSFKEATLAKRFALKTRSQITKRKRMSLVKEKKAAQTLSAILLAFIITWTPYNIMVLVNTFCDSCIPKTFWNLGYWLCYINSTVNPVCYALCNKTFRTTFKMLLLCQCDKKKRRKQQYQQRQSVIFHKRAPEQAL

p38 alpha = p38 alpha (Homo sapiens, UniProt Q16539); assay: biochemical
5HT1A = 5HT1A (Homo sapiens, UniProt P08908); assay: cell-based
Sequence of 5HT1A (P08908 whole entry): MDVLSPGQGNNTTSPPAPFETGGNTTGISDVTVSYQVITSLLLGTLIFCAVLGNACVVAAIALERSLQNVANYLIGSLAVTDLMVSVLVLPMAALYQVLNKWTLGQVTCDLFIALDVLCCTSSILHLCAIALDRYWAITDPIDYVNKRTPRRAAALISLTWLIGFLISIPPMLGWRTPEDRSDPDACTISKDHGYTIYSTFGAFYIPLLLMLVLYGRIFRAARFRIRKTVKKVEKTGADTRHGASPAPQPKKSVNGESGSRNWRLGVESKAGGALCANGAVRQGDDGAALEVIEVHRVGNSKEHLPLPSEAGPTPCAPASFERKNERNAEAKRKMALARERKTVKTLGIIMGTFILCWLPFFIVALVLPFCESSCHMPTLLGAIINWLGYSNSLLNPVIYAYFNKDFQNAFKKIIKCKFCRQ

[12] = test system: Influenza virus A/Weiss/43(H1N1); assay: microbe, parasite or virus in culture; format: cell-based; conditions: H1N1, MDCK, read-out: EC50 (mean ± SD)
[13] = 10,000 nM, read-out: Inhibition at Maximum Concentration (%)

Sequence of GSK3 beta (P49841 whole entry): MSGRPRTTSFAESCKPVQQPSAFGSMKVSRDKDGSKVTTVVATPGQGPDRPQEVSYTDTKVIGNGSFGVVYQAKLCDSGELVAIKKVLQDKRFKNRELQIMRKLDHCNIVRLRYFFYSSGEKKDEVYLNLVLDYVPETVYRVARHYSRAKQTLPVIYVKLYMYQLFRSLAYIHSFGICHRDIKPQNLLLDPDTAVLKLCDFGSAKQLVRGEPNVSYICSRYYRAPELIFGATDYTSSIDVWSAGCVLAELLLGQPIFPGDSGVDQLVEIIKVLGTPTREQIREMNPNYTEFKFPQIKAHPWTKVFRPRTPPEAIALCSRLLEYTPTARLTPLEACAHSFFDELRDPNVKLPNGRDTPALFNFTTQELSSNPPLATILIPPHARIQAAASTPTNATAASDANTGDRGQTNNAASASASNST

SMILES: O=C(O)[C@H]1C2CCC(CC2)[C@@H]1Nc1nc(-c2n[nH]c3ncc(F)cc23)nc(C2CC2)c1F [ZSP1273]
- IC50 (KDR): > 10 µM
- IC50 (GSK3 beta): > 10 µM
- lung index (A/PR/8/34 (H1N1) [1]): significantly decreased
- viral titers in the lung tissues (A/PR/8/34 (H1N1) [1]): 0
- IC50 (CAMK2 alpha): > 10 µM
- IC50 (FGFR1): > 10 µM
- EC50 (M1): > 12 µM
- Activity at Maximum Concentration (%) (M1; 12,000 nM): −3.22%
- day on which mice began to regain body weight [2]: 4 days and 5 days
- decrease of viral load in lung tissues vs vehicle ([2]; 3 mg/kg): 2.37 log10
- decrease of viral load in lung tissues vs vehicle ([2]; 10 mg/kg): 3.1 log10 and 4.18 log10
- decrease of viral load in lung tissues vs vehicle ([2]; 30 mg/kg): 4.97 log10
- viral titer in lung tissues ([2]; 30 mg/kg): < 2.0 log10
- IC50 (Beta2): > 10 µM
- inhibition at 10 µM (Beta2; [13]): -33.2%
- IC50 ([3]; read-out: IC50, Mean ± SEM): 0.000562 ± 0.000116 µM
- IC50 ([3]; read-out: IC50, experiment 1): 0.000533 µM
- IC50 ([3]; read-out: IC50, experiment 2): 0.000464 µM
- IC50 ([3]; read-out: IC50, experiment 3): 0.00069 µM
- mortality (A/PR/8/34 (H1N1) [4]): 40%
- EC50 (EV71 Shenzhen/120F1/09): > 10 µM
- EC50 (5HT2A [5]): > 12 µM
- Activity at Maximum Concentration (%) (5HT2A [5]; 12,000 nM): −21.27%
- EC50 [6]: 10 ± 0.2 pM
- EC50 (HBV): > 10 µM
- IC50 (CB1): > 10 µM
- inhibition at 10 µM (CB1; [13]): -77.2%
- viral load in nasal lavage fluid vs vehicle [7]: decreased significantly
- IC50 (22 GPCR targets): > 10 µM
- body weight of mice [8]: did not significantly reduce the body weight
- survival rate vs vehicle [8]: could improve the survival rate
- time of death relative to vehicle group [8]: died later than those in the vehicle group
- EC50 (Alpha2a): > 12 µM
- Activity at Maximum Concentration (%) (Alpha2a; 12,000 nM): −2.1%
- EC50 [9]: 32 ± 10 pM
- IC50 (D1): > 10 µM
- inhibition at 10 µM (D1; [13]): -16.7%
- CC50 (in vitro): 1.63 ± 0.87 µM
- IC50 (5HT2A [10]): > 10 µM
- inhibition at 10 µM (5HT2A [10]; [13]): 2.56%
- IC50 (Aurora A): 0.527 µM
- EC50 (Alpha1a): > 12 µM
- Activity at Maximum Concentration (%) (Alpha1a; 12,000 nM): −2.93%
- IC50 (op-delta): > 10 µM
- inhibition at 10 µM (op-delta; [13]): 7.37%
- IC50 [11]: 0.000777 ± 0.000427 µM
- EC50 (RSV long): > 10 µM
- IC50 (MST4): > 10 µM
- EC50 (M2): > 12 µM
- Activity at Maximum Concentration (%) (M2; 12,000 nM): −3%
- IC50 (JNK1): > 10 µM
- EC50 (V1a): > 12 µM
- Activity at Maximum Concentration (%) (V1a; 12,000 nM): 6.27%
- EC50 (M3): > 12 µM
- Activity at Maximum Concentration (%) (M3; 12,000 nM): −2.89%
- IC50 (p38 alpha): > 10 µM
- IC50 (5HT1A): > 10 µM
- inhibition at 10 µM (5HT1A; [13]): 19%
- EC50 [12]: 12 ± 2 pM
